Each compound was assayed against T1, murine MEKK2 (mMEKK2) (Mus musculus, UniProt Q61083) (assay: TR-FRET kinase assay (mMEKK2/MBP)). Conditions: substrate biotin MBP, 60 minutes at room temperature.
T1 sequence (Q61083 1-619): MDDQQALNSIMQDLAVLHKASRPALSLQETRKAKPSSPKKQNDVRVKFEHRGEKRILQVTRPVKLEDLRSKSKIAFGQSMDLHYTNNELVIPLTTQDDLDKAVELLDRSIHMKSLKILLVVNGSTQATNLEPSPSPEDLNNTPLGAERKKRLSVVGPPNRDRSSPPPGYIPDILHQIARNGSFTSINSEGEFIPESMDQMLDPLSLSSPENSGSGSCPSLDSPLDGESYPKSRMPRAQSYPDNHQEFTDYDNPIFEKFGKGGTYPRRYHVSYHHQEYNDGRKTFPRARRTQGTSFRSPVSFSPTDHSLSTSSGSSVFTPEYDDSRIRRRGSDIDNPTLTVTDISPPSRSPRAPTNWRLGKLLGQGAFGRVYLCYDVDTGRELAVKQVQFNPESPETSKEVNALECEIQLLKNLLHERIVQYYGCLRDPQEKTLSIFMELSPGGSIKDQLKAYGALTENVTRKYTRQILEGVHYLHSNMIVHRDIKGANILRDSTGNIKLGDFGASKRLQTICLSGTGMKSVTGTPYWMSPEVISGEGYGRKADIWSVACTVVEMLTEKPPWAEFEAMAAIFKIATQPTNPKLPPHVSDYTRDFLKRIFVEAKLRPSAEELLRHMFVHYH
Format: biochemical
Method: In one approach, MEKK2 inhibitory activity of compounds of the invention can be assessed using the time-resolved Fluorescence Resonance Energy Transfer (TR-FRET) assay detailed in Example 5. In this assay, the excitation energy of one fluorescent molecule (the donor) is transferred by a resonance mechanism to a nearby second fluorescent molecule (the acceptor), which then releases its fluorescent energy through fluorescent emission. This fluorescent energy is measured using a time-resolved fluorescence measurement protocol (LANCE high count 615/665); excitation occurred with 1,000 flashes at 325 nm, measurement was delayed by 100 μs, and data were acquired for 50 μs at 615 and 665 nm.
A TR-FRET kinase assay was used to screen potential inhibitors of MEKK2. The assay was performed as follows: Compounds to be tested were weighed and solubilized in DMSO (Sigma) to a stock concentration of 10 mM. Serial dilutions starting from 1 mM were prepared with additional DMSO. These dilutions were further diluted to 250 μM in kinase reaction buffer [20 mM Hepes pH 7.5, 5 mM MgCl2, 1 mM DTT (Dithiothreitol-Sigma), 1 mM NaVO4 (sodium vanadate-Sigma). A 25 μl aliquot of this solution was transferred to a black 96-well nonbinding surface microplate (Fisher). A stock aliquot containing […] of murine MEKK2 (mMEKK2) was diluted in the kinase reaction buffer and incubated with the compounds on the microplate for 10 minutes. A 25 μl aliquot of a 138 ng solution of biotin MBP (myelin basic protein—Upstate Biotechnology) was added to the reaction followed by 25 ul of a 25 ng solution of anti-phospho MBP antibody (Upstate Biotechnology) diluted in kinase reaction buffer. Finally an aliquot (50 μl) of a 5 uM solution of ATP (adenosine triphosphate) was added and the reaction was allowed to proceed for 60 minutes at room temperature. The reaction was stopped by the addition of 50 μL of a 12.5 ng solution of europium labeled anti-mouse IgG (Perkin Elmer) and 45 ng of Cy5 labeled streptavidin (Jackson Immunoresearch) in termination buffer (20 mM Hepes pH 7.5, 100 mM EDTA; Sigma). The assay was allowed to equilibrate for 45 minutes before placing the plate on the Victor™ plate reader. The plate was read using the 615/665 LANCE protocol.
Work on `COc1cccc(-c2nc(SCc3ccc(NC(=O)Nc4ccccc4)cc3)[nH]c(=O)c2C#N)c1` [Example 3m] yielded an IC50 of less than 5 µM.
With `COc1cccc(-c2nc(SCc3ccc(NC(=O)Nc4cccc(C#N)c4)cc3)[nH]c(=O)c2C#N)c1` [Example 3o] the IC50 was less than 20 µM.
For `COc1cccc(-c2nc(SCc3ccc(NC(=O)Nc4ccc5c(c4)OCO5)cc3)[nH]c(=O)c2C#N)c1` [Example 3p], the IC50 was less than 20 µM.
Compound `COc1cccc(-c2nc(SCc3ccc(NC(=O)Nc4c(Cl)cccc4Cl)cc3)[nH]c(=O)c2C#N)c1` [Example 3q] has an IC50 greater than 40 µM.
`COc1cccc(-c2nc(SCc3ccc(NC(=O)Nc4cc(F)cc5c4OCOC5)cc3)[nH]c(=O)c2C#N)c1` [Example 3r] was tested, and the IC50 was less than 5 µM.
`COc1cccc(-c2nc(SCc3ccc(NC(=O)Nc4ccc(Cl)c(C(F)(F)F)c4)cc3)[nH]c(=O)c2C#N)c1` [Example 3s] showed an IC50 of less than 5 µM.
In the case of `COc1cccc(-c2nc(SCc3ccc(NC(=O)Nc4cc(C(F)(F)F)ccc4Cl)cc3)[nH]c(=O)c2C#N)c1` [Example 3t], the IC50 is reported as less than 5 µM.
For `COc1cccc(-c2nc(SCc3ccc(NC(=O)Nc4cc([N+](=O)[O-])ccc4F)cc3)[nH]c(=O)c2C#N)c1` [Example 3u], the IC50 was less than 10 µM.
`COc1cccc(-c2nc(SCc3ccc(NC(=O)Nc4cccc(Oc5ccccc5)c4)cc3)[nH]c(=O)c2C#N)c1` [Example 3v] showed an IC50 of less than 1 µM.
`COc1cccc(-c2nc(SCc3ccc(NC(=O)NCCc4cccs4)cc3)[nH]c(=O)c2C#N)c1` [Example 3w] was tested, and the IC50 was less than 5 µM.
`COc1cccc(-c2nc(SCc3ccc(NC(=O)Nc4cc(C(F)(F)F)cc(C(F)(F)F)c4)cc3)[nH]c(=O)c2C#N)c1` [Example 3x] gave an IC50 of less than 1 µM.
`COc1cccc(-c2nc(SCc3ccc(NC(=O)NC4CCCCC4)cc3)[nH]c(=O)c2C#N)c1` [Example 3y] was tested, and the IC50 was less than 1 µM.
Compound `COc1cccc(-c2nc(SCc3ccc(NC(=O)NC(c4ccccc4)c4ccccc4)cc3)[nH]c(=O)c2C#N)c1` [Example 3z] has an IC50 of less than 1 µM.
With `COc1cccc(-c2nc(SCc3cccc(NCc4ccc(OCCN(C)c5ccncc5)cc4)c3)[nH]c(=O)c2C#N)c1` [Example 4b] the IC50 was greater than 40 µM.
`N#Cc1c(-c2cccc(Cn3cncn3)c2)nc(SCc2cccc(NC(=O)c3ccc(Cl)c(Cl)c3)c2)[nH]c1=O` [Example 4bb] gave an IC50 greater than 40 µM.
`COc1cccc(-c2nc(SCc3cccc(NCC4CCN(c5ccncc5)CC4)c3)[nH]c(=O)c2C#N)c1` [Example 4c] showed an IC50 greater than 40 µM.
For `N#Cc1c(-c2cccc(Cn3ccnc3)c2)nc(SCc2cccc(NC(=O)c3ccc(Cl)c(Cl)c3)c2)[nH]c1=O` [Example 4cc], the IC50 was greater than 40 µM.
Work on `CCc1nc(C)c(CNc2cccc(CSc3nc(-c4cccc(OC)c4)c(C#N)c(=O)[nH]3)c2)[nH]1` [Example 4e] yielded an IC50 greater than 40 µM.
Work on `COc1cccc(-c2nc(SCc3cc(NCc4ccc(Cl)c(Cl)c4)ccc3O)[nH]c(=O)c2C#N)c1` [Example 4f] yielded an IC50 of less than 5 µM.
For `COc1cccc(-c2nc(SCc3cc(NCc4ccc(Cl)c(Cl)c4)cc([N+](=O)[O-])c3)[nH]c(=O)c2C#N)c1` [Example 4g], the IC50 was less than 5 µM.
Compound `COc1cccc(-c2nc(SCCCCCn3cnc4c(NCc5ccccc5)ncnc43)[nH]c(=O)c2C#N)c1` [Example 4h] has an IC50 greater than 40 µM.
`COc1cccc(-c2nc(SCCCn3cnc4c(NCc5ccccc5)ncnc43)[nH]c(=O)c2C#N)c1` [Example 4i] showed an IC50 greater than 40 µM.
Compound `N#Cc1c(-c2cccc(C(=O)O)c2)nc(SCCCn2cnc3c(NCc4ccccc4)ncnc32)[nH]c1=O` [Example 4j] has an IC50 greater than 40 µM.
In the case of `N#Cc1c(-c2cccc(O)c2)nc(SCc2cccc(NCC3CCN(c4ccncc4)CC3)c2)[nH]c1=O` [Example 4k], the IC50 is reported as greater than 40 µM.
For `N#Cc1c(-c2cccc(O)c2)nc(SCc2cccc(NC(=O)c3ccc(Cl)c(Cl)c3)c2)[nH]c1=O` [Example 4l], the IC50 was less than 5 µM.
With `N#Cc1c(-c2cccc(F)c2)nc(SCc2cccc(NC(=O)c3ccc(Cl)c(Cl)c3)c2)[nH]c1=O` [Example 4o] the IC50 was less than 5 µM.
With `N#Cc1c(-c2cccc(NCC[C@@H](O)[C@@H](O)CO)c2)nc(SCc2cccc(NC(=O)c3ccc(Cl)c(Cl)c3)c2)[nH]c1=O` [Example 4y] the IC50 was less than 5 µM.

These compounds were tested against T1, murine MEKK2 (mMEKK2) (assay: MEKK2 PhosphoELISA (mMEKK2/MKK4)). Conditions: substrate MKK4/SKK1 (unactive), ATP final 10 μM, O.D. 450 nm.
Format: biochemical
Description: Another useful method for assessing protein kinase inhibition, and specifically MEKK2 inhibition, of compounds of the invention involves the MEKK2 phospho-antibody enzyme-linked immunosorbent assay (PhosphoELISA). This screening panel, which involves relatively few steps, is a useful indicator of potential inhibitors of MEKK2. Reactions to murine MEKK2 are observed as optical density measurements at an absorbance of 450 nm. Inhibitory activities can be expressed in terms of IC50, where IC50 is the molar concentration of compound required to inhibit protein kinase binding by 50%.
A phospho-antibody enzyme-linked immunosorbent assay (PhosphoELISA) was used to screen potential inhibitors of MEKK2. The assay was performed as follows: Compounds to be tested were weighed and solubilized in DMSO (Sigma) to a stock concentration of 10 mM. Serial dilutions starting from 1 mM were prepared with additional DMSO. These dilutions were further diluted to 250 μM in kinase reaction buffer [20 mM Hepes pH 7.5, 5 mM MgCl2, 1 mM DTT (Dithiothreitol-Sigma), 1 mM NaVO4 (sodium vanadate- Sigma). A 25 μl aliquot of this solution was transferred to a glutathione coated 96-well microplate (Pierce). A stock aliquot containing 50-125 ng of murine MEKK2 (mMEKK2) was added to each well and incubated on the microplate for 10 minutes at room temperature. A 25 μl solution of MKK4/SKK1 (unactive) was diluted 1:200 in kinase assay buffer and added to the reaction plate followed by 50 μl of 25 μM ATP (adenosine triphosphate) to afford a final well concentration of 10 μM. The reaction was allowed to proceed for 60 minutes at room temperature before washing 3 times with wash buffer [100 mM phosphate pH 7.5, 0.05% TWEEN 20 (Sigma)]. A solution of anti-phospho MKK4/SEK1 antibody (Calbiochem) and biotin anti rabbit IgG (Jackson Immunoresearch) was diluted 1:2500 in kinase reaction buffer and added to the appropriate wells. The reaction was incubated for 60 minutes at room temperature. The microplate was washed 3 times with wash buffer and 100 ul of streptavidin horseradish peroxidase (HRP-Pierce) was added and incubated for 30 minutes at room temperature. The microplate was washed 3 times with wash buffer and 100 μl of TMB (3,3′,5,5′-tetramethylbenzidine-Sigma) was added. The assay was allowed to develop for 15-20 minutes then the reaction was stopped with the addition of 100 μl of 0.2 N sulfuric acid. The optical density (O.D.) of the plate was read on the Victor™ plate reader using the absorbance at 450 nm.
Work on `N#Cc1c(-c2ccc(-c3cc4ccccc4s3)cc2)nc(SCc2cccc(NC(=O)c3ccc(Cl)c(Cl)c3)c2)[nH]c1=O` [Example 2aa, N-{3-[4-(4-Benzo[b]thiophen-2-yl-phenyl)-5-cyano-6-oxo-1,6-dihydro-pyrimidin-2-ylsulfanylmethyl]-phenyl}-3,4-dichloro-benzamide] yielded an IC50 of less than 1 µM.
`N#Cc1c(-c2cccc(OC(F)(F)F)c2)nc(SCc2cccc(NC(=O)c3ccc(Cl)c(Cl)c3)c2)[nH]c1=O` [Example 2cc, 3,4-Dichloro-N-{3-[5-cyano-6-oxo-4-(3-trifluoromethoxy-phenyl)-1,6-dihydro-pyrimidin-2-ylsulfanylmethyl]-phenyl}-benzamide] showed an IC50 of less than 1 µM.
In the case of `CC(C)(C)OC(=O)n1c(-c2cccc(-c3nc(SCc4cccc(NC(=O)c5ccc(Cl)c(Cl)c5)c4)[nH]c(=O)c3C#N)c2)cc2ccccc21` [Example 2jj, 2-(3-{5-Cyano-2-[3-(3,4-dichloro-benzoylamino)-benzylsulfanyl]-6-oxo-1,6-dihydro-pyrimidin-4-yl}-phenyl)-indole-1-carboxylic acid tert-butyl ester], the IC50 is reported as less than 1 µM.
Work on `N#Cc1c(-c2cccc(-c3cc4ccccc4[nH]3)c2)nc(SCc2cccc(NC(=O)c3ccc(Cl)c(Cl)c3)c2)[nH]c1=O` [Example 2kk, 3,4-Dichloro-N-(3-{5-cyano-4-[3-(1H-indol-2-yl)-phenyl]-6-oxo-1,6-dihydro-pyrimidin-2-ylsulfanylmethyl}-phenyl)-benzamide] yielded an IC50 of less than 5 µM.
With `N#Cc1c(-c2c[nH]c3ccccc23)nc(SCc2cccc(NC(=O)c3ccc(Cl)c(Cl)c3)c2)[nH]c1=O` [Example 2ll, 3,4-Dichloro-N-{3-[5-cyano-4-(1H-indol-3-yl)-6-oxo-1,6-dihydro-pyrimidin-2-ylsulfanylmethyl]-phenyl}-benzamide] the IC50 was less than 5 µM.

— patent US20060100226A1, “2-Thiopyrimidinones as therapeutic agents” (priority 2004, published 2006)
